We go through 22 molecules from ChEMBL document CHEMBL4043084, “Indole Alkaloids from Hunteria zeylanica” (J Nat Prod, 2017).

Activity calls are given as the source filed them. No cut-off for these calls is given here.

Experiment [1] deals with SGC-7901. The experiment in a line: Cytotoxicity against human SGC7901 cells assessed as reduction in cell viability at 0.0624 to 40 uM incubated for 48 hrs by MTT assay. The experiment is classed as functional, cell-based. Background: Tetrazolium dyes change colour on reduction, which living cells bring about.
Experiment [2] has as its system HeLa. The experiment in a line: Cytotoxicity against human HeLa cells assessed as reduction in cell viability at 0.0624 to 40 uM incubated for 48 hrs by MTT assay. The class given is functional, cell-based.
The test system of experiment [3] is A549. The experiment in a line: Cytotoxicity against human A549 cells assessed as reduction in cell viability at 0.0624 to 40 uM incubated for 48 hrs by MTT assay. The experiment is classed as functional, cell-based.
The subject of experiment [4] is Rhodobium porosum. The experiment in a line: Insecticidal activity against Rhodobium porosum adults placed on 5 secs compound pre-treated bean leaves after 1 day by leaf dipping protocol based method. The class given is functional.

The term LC50 denotes the concentration lethal to half of the exposed cells or organisms. In the case of `CC[C@H]1CN2CCc3c([nH]c4ccccc34)[C@@H]2C[C@@H]1CCO`, the result in experiment [1], in experiment [2] and in experiment [3] was inactive. Moreover, the LC50 in experiment [4] was 291 µM.

Turning to `C/C=C1/CN2CCc3c([nH]c4ccccc34)[C@@H]2C[C@@H]1[C@H](CO)C(=O)OC`, the result in experiment [1], in experiment [2] and in experiment [3] was inactive.

Take `C/C=C1/CN2CC[C@@]34CN5c6c(cccc6[C@@]67CC[N+]8([O-])CCC[C@@]9(CC[C@@]56[C@H]9C)[C@@H]78)[C@@]35[C@@H]2CC1[C@@H](C(=O)OC)N5c1ccccc14` (some centres not stated): the outcome in experiment [1], in experiment [2] and in experiment [3] was inactive.

As to `CC[C@@]12CCCN3CCc4c(n(c5ccccc45)[C@@H](OC)C1)[C@H]32`, the result in experiment [1], in experiment [2] and in experiment [3] was inactive.

On to `C/C=C1/CN2CCc3c([nH]c4ccc(O)c([C@H]5C[C@@H]6/C(=C\C)CN(C)[C@@H](Cc7c5[nH]c5ccccc75)[C@@]6(CO)C(=O)OC)c34)[C@@H]2C[C@@H]1CCO`, for which the outcome in experiment [1], in experiment [2] and in experiment [3] was inactive.

As to `C/C=C1\C[N+]2(C)CCc3c([nH]c4ccc(O)cc34)[C@@H]2C[C@@H]1CCO` (some centres not stated), the result in experiment [1], in experiment [2] and in experiment [3] was inactive.

As to `C/C=C1/C[N@@+]2(C)CCc3c([nH]c4ccc(O)c([C@H]5C[C@@H]6/C(=C\C)CN(C)[C@@H](Cc7c5[nH]c5ccccc75)[C@@]6(CO)C(=O)OC)c34)[C@@H]2C[C@@H]1CCO`, the result in experiment [1], in experiment [2] and in experiment [3] was inactive.

As for `O[C@@H]1CC[C@H]2CN3CCc4c([nH]c5ccccc45)[C@@H]3C[C@@H]2C1`, the outcome in experiment [1], in experiment [2] and in experiment [3] was inactive.

On to `C/C=C1/C[N@@+](C)([O-])[C@H]2Cc3c4n(c5ccccc35)C35[C@@H]6C[C@H]7/C(=C\C)CN6CCC3(c3ccccc3N5[C@@H]7C(=O)O)[C@H]4CC1[C@H]2C(=O)OC` (some centres not stated), for which the outcome in experiment [1], in experiment [2] and in experiment [3] was inactive.

On to `C/C=C1/CN2CCc3c4n(c5ccccc35)[C@H](C(=O)OC)[C@@H]1C[C@@H]42`, for which the result in experiment [1], in experiment [2] and in experiment [3] was inactive.

Turning to `CC[C@@]12CCCN3CCc4c(n(c5ccccc45)[C@H](OC)C1)[C@H]32`, the outcome in experiment [1], in experiment [2] and in experiment [3] was inactive.

With `C/C=C1/CN(C)[C@H]2Cc3c([nH]c4ccccc34)[C@@H](c3cc4[nH]c5c(c4cc3O)CCN3C[C@H](CC)[C@@H](CCO)C[C@@H]53)C[C@H]1[C@]2(CO)C(=O)OC`, the outcome in experiment [1], in experiment [2] and in experiment [3] was inactive.

As for `C/C=C1\CN2CCc3c([nH]c4ccccc34)[C@@H]2C[C@@H]1CCO`, the result in experiment [1], in experiment [2] and in experiment [3] was inactive. Moreover, in experiment [4], the LC50 came out at 360 µM.

With `C=C[C@H]1CN2CCc3c([nH]c4ccc(O)c([C@H]5C[C@@H]6/C(=C\C)CN(C)[C@@H](Cc7c5[nH]c5ccccc75)[C@@]6(CO)C(=O)OC)c34)[C@@H]2C[C@@H]1CCO`, the result in experiment [1], in experiment [2] and in experiment [3] was inactive.

On to `CC[C@]12CCCN3CC[C@]4(C(=C(C(=O)OC)C1)Nc1ccccc14)[C@@H]32`, for which the result in experiment [1], in experiment [2] and in experiment [3] was inactive.

In the case of `CC[C@@H]1[C@H]2C[C@@H]3c4[nH]c5ccc(OC)cc5c4[C@@H](C(=O)[C@H]2CO)[C@@H]1N3C`, the result in experiment [1], in experiment [2] and in experiment [3] was inactive.

For the molecule `C/C=C1/CN2CC[C@@]34CN5c6c(cccc6[C@@]67CCN8CCC[C@@]9(CC[C@@]56[C@H]9C)[C@H]87)[C@@]35[C@@H]2CC1[C@@H](C(=O)OC)N5c1ccccc14`, the outcome in experiment [1], in experiment [2] and in experiment [3] was inactive.

For `C/C=C1/C[N@@+]2(C)CCc3c([nH]c4ccc(O)c([C@H]5C[C@H]6[C@@]7(C(=O)OC)CO[C@H](N(C)[C@H]7Cc7c5[nH]c5ccccc75)[C@@]65O[C@H]5C)c34)[C@@H]2C[C@@H]1CCO`, the outcome in experiment [1], in experiment [2] and in experiment [3] was inactive.

For `C=C[C@H]1CN2CCc3c([nH]c4ccc(O)cc34)[C@@H]2C[C@@H]1CCO`, the outcome in experiment [1], in experiment [2] and in experiment [3] was inactive. In addition, in experiment [4], the 50% lethal concentration (LC50) turned out to be 168 µM.

On to `O[C@H]1CC[C@H]2CN3CCc4c([nH]c5ccccc45)[C@@H]3C[C@@H]2C1`, for which the outcome in experiment [1], in experiment [2] and in experiment [3] was inactive.

In the case of `O=[N+]([O-])/N=C1\NCCN1Cc1ccc(Cl)nc1`, the LC50 in experiment [4] was 49 µM.

Regarding `C/C=C1/C[N@+]2(C)CCc3c([nH]c4ccccc34)C[C@H]1CC2`, the result in experiment [1], in experiment [2] and in experiment [3] was inactive.
